Results published in article PMC3197640, “Human Engineered Heart Tissue as a Versatile Tool in Basic Research and Preclinical Toxicology” (PLoS ONE, 2011).
Like-named read-outs stand apart in the source and are kept apart here.

Legend:
[1] = test system: human engineered heart tissue (hEHT); details: for Threshold concentration at which the compound significantly decreased relaxation velocity / Threshold concentration inducing irregular beating patterns (RR-scatter): human, 30 min
Experimental: Calcium-concentration response curves were established in DMEM, 1% penicillin/streptomycin, 10 mM HEPES, and 100 µM acetylcysteine with calcium concentrations adjusted to the desired final concentration (0.2–3.0 mmol/L). Equilibration time was 20 minutes. Measurements were performed under spontaneous activity by automated video-optical recording and analysis (customized software, Consulting Team Machine Vision) as previously described. Contractile force F was calculated from the degree of post deflection δ (µm), silicone post length (L) and radius (R) and elastic modulus (E) by the formula F = 3πER^4δ/4L^3 [29]. Contraction- and relaxation velocities were calculated as the average maximal steepness of twitch contraction or relaxation, respectively. Each value represents the mean of all measurable contraction twitches in the recording period of 60 seconds per hEHT.
EHTs were equilibrated in DMEM, 1% penicillin/streptomycin, 10 mM HEPES, 100 µM acetylcysteine for one hour. […] Isoprenaline and carbachol were used at 100 nM and 10 µM, respectively.
Intervals between two contractions were determined for all recordings. […] Interval scatter was therefore defined as the length between 10th and 90th percentile (interdecile range, IDR). Statistical difference between groups of biological replicas were determined with Mann-Whitney U Test (*P<0.05).

[2] = test system: hERG channel; details: cited from earlier work
[3] = test system: hESC-derived cardiomyocytes (EBs and EHTs); experiment: Action potential measurements with sharp microelectrodes (zero current clamp); assay type: cell-based, human
[4] = read-out: Published IC50 (hERG), hERG channel assays

Cc1cccc(CCN2CCC(C(=O)c3ccc(NS(C)(=O)=O)cc3)CC2)n1 [E-4031]
Effect on APD ([3]; 300 nM, P<0.05, n = 4): significant prolongation

CCN(CC)CCNC(=O)c1ccc(N)cc1 [Procainamide]
Threshold concentration at which the compound significantly decreased relaxation velocity [1]: 100000 nM
Threshold concentration inducing irregular beating patterns (RR-scatter) [1]: 100000 nM
IC50 [2, 4]: 139000 nM

[Ca+2] [calcium]
Decrease in force ([1]; hEHT, lowering calcium from 1.8 mM (baseline) to 0.2 mM): 90%

C[N+](C)(C)CCOC(N)=O [carbachol]
Effect on isoprenaline-induced changes in frequency and force ([1]; hEHT, 10 µM, after isoprenaline 100 nM, 0.6 mM calcium): reversed

CC(C)NCC(O)c1ccc(O)c(O)c1 (centres unmarked) [isoprenaline]
Effect on beating frequency ([1]; hEHT, 100 nM, 0.6 mM calcium): positive chronotropic effect
Effect on force ([1]; hEHT, 100 nM, 0.6 mM calcium): trend towards an increase in force (not significant)

COC(=O)C1=C(C)NC(C)=C(C(=O)OCC(C)C)C1c1ccccc1[N+](=O)[O-] (centres unmarked) [nisoldipine]
Effect on electrical activity and contractions ([3]; 1 µM, all spontaneously beating hESC cultures): completely interrupted

NC1=N[C@H](O)[C@H]2[C@H]3O[C@]4(O)O[C@@H]([C@@H](O)[C@@]2(N1)[C@@H]4O)[C@]3(O)CO [tetrodotoxin]
Effect on AP upstroke velocity [3]: significant decrease
Effect on APD80 and diastolic interval [3]: significant prolongation
